The source of these data is patent publication US8841285B2, “Potent immunosuppressive agents, derivatives and uses” (priority 2002, dated 2014).

Each structure is given as a SMILES string. Read-outs that look alike come from different tables or passages of the source.

Data set [1] deals with mixed lymphocyte reaction. The settings on record: read-out: IC50 in MLR (mixed lymphocyte reaction) assay; cited from earlier work.
The subject of another data set is skin graft. The settings on record: cited from earlier work.
The subject of data set [2] is EMCV IRES mediated initiation. The data set is described as follows: in vitro translation in RRL, EMCV IRES cistron. It is filed as biochemical, rabbit. The following applies: EMCV IRES bicistronic reporter. How it is done:
(§1) In vitro Translation and Transcription. pSP/(CAG)33/FF/HCV/Ren·pA51 and pKS/FF/EMC/Ren were linearized by BamHI, then purified by phenol:chloroform extraction and ethanol precipitation, and dissolved in water. pSP/(CAG)33/FF/HCV/Ren·A51 and pKS/FF/EMC/Ren were individually transcribed using a large scale RNA production system in the presence of m7Gppp cap analog followed by incubation with DNase as described by the manufacturer. Resulting RNA was purified using a kit as described by the manufacturer. Translation was performed using a rabbit reticulocyte lysate system as per instructions. Briefly, 200 ng of purified RNA was combined in a 20 μl reaction containing 10 μl RRL, 0.2 μl each of minus Met and minus Leu amino acid mixtures, 70 mM KCl, 2 mM DTT, 1× translation buffer, and 10 units of RNasin. Compounds or DMSO were added to a final DMSO concentration of 2%. Reactions were incubated at 30° C. for 1.5 h, then 5 μl of the reaction mixture was assayed for luciferase activity as per instructions of luciferas reporter assay system.

The test system of data set [3] is cap-dependent translation. The data set is described as follows: in vitro translation in RRL, bicistronic reporter, cap-dependent cistron. It is filed as biochemical, rabbit. How it is done: as §1
The next data set concerns the target T1, eIF4A-eIF4G (Homo sapiens, UniProt P60842).
T1 construct: The entire ORF of human eIF4AI was ligated in-frame into the BamHI and HindIII sites of the pET-28a expression vector; made in house; host or cells: bait from E. coli BL21(DE3); eIF4G endogenous in HeLa lysate
As to the kind of experiment: 6XHis-eIF4AI pulldown, eIF4A-eIF4G interaction. It is filed as binding. The settings on record: HeLa lysate; PatA at 100 μM. How it is done: 6XHis-eIF4AI pulldown, Co-immunoprecipitation, and m^7GTP-Sepharose pulldown. For 6XHis-eIF4AI pulldowns, HeLa lysates were prepared as described above. Equal aliquots (200 μl) of lysate were incubated with PatA analogs or DMSO and 8.5 μg of 6XHis-eIF4AI overnight at 4° C., followed by addition of Ni-NTA resin for 1 h, then resin was washed with 3 ml buffer, and boiled in SDS-PAGE loading buffer followed by SDS-PAGE and immunoblotting with indicated antibodies. For co-immunoprecipitation, 293T cells with vector control or pcDNA3-Flag-4B lysates were prepared by pipetting in: 20 mM HEPES, pH 7.4, 100 mM KCl, 0.5% Triton-X-100, 20% glycerol, protease inhibitor and 15 μg/ml RNAse A followed by clearing at 13 000 g (10 min). For DMDA-PatA treated samples, lysis and wash buffers also contained 100 nM DMDA-PatA. Anti-Flag antibody was incubated overnight at 4° C., followed by addition of Protein G beads for 4 h. Beads were washed 3× with 500 μl buffer, boiled in SDS-PAGE loading buffer followed by SDS-PAGE and immunoblotting. m^7GTP-Sepharose was performed as described (Yoder-Hill et al., 1993) with modifications. 30 μl RRL was incubated with DMSO or DMDA-PatA at room temperature for 30 min, diluted with buffer supplemented with DMSO or DMDA-PatA (20 nM), then combined with 50 μl beads for 3 h at 4° C. followed by 4 washes with 1 ml buffer. […]

In another data set the test system is MCF-7 cells. As to the kind of experiment: cell proliferation assay, MCF-7 cells. The data set is classed as cell-based. The settings on record: MCF-7 cells (FIG. 13). As for the experimental part: Cell Proliferation Assay. 1×10^5 of indicated cells in each well of a 96-well plate were treated with indicated compounds for 24 h followed by addition of 0.11 μCi of [^3H]-thymidine (6.7 Ci/mmol) per well for 6 h, followed by harvesting to GF/C filtermats using a cell harvester. Filtermats were air-dried and scintillation counted. IC50s were determined from quadruplicate data readings and curve-fitting analysis.

T1 sequence (P60842 whole entry): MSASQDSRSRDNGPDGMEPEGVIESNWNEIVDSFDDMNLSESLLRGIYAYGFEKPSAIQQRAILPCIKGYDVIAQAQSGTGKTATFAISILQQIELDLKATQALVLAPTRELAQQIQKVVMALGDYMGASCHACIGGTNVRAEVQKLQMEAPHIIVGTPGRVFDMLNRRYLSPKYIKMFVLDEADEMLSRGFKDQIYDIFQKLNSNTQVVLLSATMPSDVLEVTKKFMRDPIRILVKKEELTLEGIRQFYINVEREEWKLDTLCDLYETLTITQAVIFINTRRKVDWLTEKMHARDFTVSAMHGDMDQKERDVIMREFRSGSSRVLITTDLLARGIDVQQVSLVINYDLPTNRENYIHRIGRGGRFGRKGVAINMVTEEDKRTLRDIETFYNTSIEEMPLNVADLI

As to `CC(/C=C/C(C)=C/[C@@H]1Cc2nc(cs2)[C@@H](C)C[C@@H](N)CC(=O)O[C@@H](C)C/C(C)=C/C=C\C(=O)O1)=C\CN(C)C` [Pat A (1), Pateamine A], the IC50 is 2.6 nM in data set [1]; around 54 nM in data set [2]; around 88 nM in data set [3] (EMCV IRES bicistronic reporter, read-out: IC50, cap-dependent initiation); around 20 nM in data set [3] (HCV IRES bicistronic reporter, read-out: IC50, cap-dependent translation). In addition, the “activity in skin graft rejection assay” value in the data set with skin graft (all doses) was “All doses were active”. The toxicity is reported as 17% in the data set on skin graft (at high doses) and “no toxicity” in the data set with skin graft (other dose levels). In the data set with skin graft (mouse skin graft rejection), the “survival period of the skin graft” value is 15 days. Besides, the “inhibition of cap-dependent translation” value in data set [3] (100 nM, HCV IRES bicistronic reporter) is “nearly completely inhibited”. For the same compound, the “effect on eIF4A-eIF4G interaction” value at eIF4A-eIF4G is “disrupted”. The “reversibility of antiproliferative effect” value in the data set with MCF-7 cells was “irreversible”.

In general, IC50 refers to the point on the concentration scale where inhibition reaches its midpoint.
